Measurements: US20070088043A1, “Novel HDAC inhibitors” (ORCHID RESEARCH LABORATORIES LIMITED., priority 2005, published 2007)

How the values were obtained:
NCIH 460 cells = experiment: Anti-cancer screen (MTT), NCIH460; assay type: cell-based; details: Homo sapiens, NCI-H460, NCIH460 cells, 48 hours, MTT; for GI50: concentration to decrease % growth by 50%; for IC100: concentration to decrease % growth by 100%, read-out: NCIH460 TGI; for LC50: concentration to decrease % growth by 150%
Experimental: (§1) Experimental drugs are screened for anti-cancer activity in three cell lines for their GI50, TGI and LC50 values (using five concentrations for each compound). The cell lines are maintained in DMEM containing 10% fetal bovine serum. 96 well micro titer plates are inoculated with cells in 100 μL for 24 h at 37° C., 5% CO2, 95% air and 100% relative humidity. 5000 HCT 116 cells/well, 5000 NCIH 460 cells/well and 5000 U251 cells/well are plated. A separate plate with these cell lines is also inoculated to determine cell viability before the addition of the compounds (T0).
(§2) Following 24-hour incubation, experimental drugs are added to the 96 well plates. Each plate contains one of the above cell lines and the following in triplicate: five different concentrations (0.01, 0.1, 1, 10 and 100 μM) of four different compounds, appropriate dilutions of a cytotoxic standard and control (untreated) wells. Compounds are dissolved in DMSO to make 20 mM stock solutions on the day of drug addition and frozen at −20° C. Serial dilutions of these 20 mM stock solutions are made in complete growth medium such that 100 μL of these drug solutions in medium, of final concentrations equaling 0.01, 0.1, 1, 10 and 100 μM can be added to the cells in triplicate. Standard drugs whose anti-cancer activity has been well documented and which are regularly used are doxorubicin and SAHA.
(§3) For To measurement, 24 hours after seeding the cells, 10 μL of 3-(4,5-Dimethyl-2-thiazolyl)-2,5-diphenyl-2H-tetrazolium (MTT) solution per well is added and incubation carried out for 3 hours at 37° C., 5% CO2, 95% air and 100% relative humidity, protected from light. Cells incubated with compounds for 48 hours are treated similarly except with the addition of 20 μL MTT solution per well and a subsequent incubation under the same conditions. After 3 hours of MTT incubation, well contents are aspirated carefully followed by addition of 150 μL DMSO per well. Plates are agitated to ensure solution of the formazan crystals in DMSO and absorbance read at 570 nm. […]

HCT 116 cells = experiment: Anti-cancer screen (MTT), HCT116; assay type: cell-based; details: Homo sapiens, HCT-116, HCT116 cells, 48 hours, MTT; for GI50: concentration to decrease % growth by 50%; for IC100: concentration to decrease % growth by 100%, read-out: HCT116 TGI; for LC50: concentration to decrease % growth by 150%
Experimental: as §1, §2, §3

MDAMB231/U251 = experiment: Anti-cancer screen (MTT), MDAMB231/U251; assay type: cell-based; details: MDAMB231/U251 cells, 48 hours; for GI50: concentration to decrease % growth by 50%; for IC100: concentration to decrease % growth by 100%, read-out: MDAMB231/U251 TGI; for LC50: concentration to decrease % growth by 150%
Experimental: as §1, §2, §3

[1] = system: NCIH460, HCT116, MDAMB231/U251; experiment: Anti-cancer screen, mean GI50 over the cell lines; assay type: cell-based; details: in µM
Experimental: as §1, §2, §3

[2] = system: HDAC (Mouse Liver Extract); experiment: Histone Deacetylase (HDAC) Inhibition Assay using Boc-Lys (Ac)-AMC Substrate; assay type: biochemical; details: mouse liver enzyme, NA = No Activity; for HDAC Inhibition 1 μM / HDAC Inhibition 10 μM: in % (unit assumed)
Source text: HDAC Activitv Screening: Histone Deacetylase (HDAC) Inhibition Assay using Boc-Lys (Ac)-AMC Substrate:
Inhibition of HDAC has been implicated to modulate transcription and to induce apoptosis or differentiation in cancer cells. The fluorometric assay provides a fast and fluorescence based method that eliminates radioactivity, extractions or chromatography, as used in traditional assays. The assay based on two steps. First, the HDAC fluorometric substrate, which comprises an acetylated lysine side chain, is incubated with a sample containing HDAC activity (Mouse Liver Extract). Deacetylation of the substrate sensitizes the substrate, in the second step; treatment with the Trypsin stop solution produces a fluorophore that can be easily analyzed using fluorescence plate reader.
Assay was done in 96 well black microplate and total volume of the assay is 100 ul. Mouse liver enzyme is diluted 1:6 with HDAC buffer. Enzyme cocktail made of 10 ul of diluted enzyme and 30 ul of HDAC buffer. 40 ul of enzyme cocktail dispensed into each well. 10 ul of different concentrations of inhibitor added in to each well, except enzyme control well. Preincubated the plate at 30° C. for 5 minutes. The HDAC reaction is started by adding 50 ul of HDAC substrate (Boc-Lys (Ac)-AMC Substrate) solution. Incubated the plate at 30° C. for 30 minutes. Adding 100 ul of Trypsin stop solution stops the reaction. The plate is incubated again at 30° C. for 20-30 minutes. The release of AMC is monitored by measuring the fluorescence at excitation wavelength of 365 or 360 nm and emission wavelength of 440 or 460 nm. Buffer and substrate alone kept for blank subtraction. (Dennis Wegener et al, Anal. Biochem, 321, 2003, 202-208).

SMILES	GI50 (NCIH 460 cells) [µM]	IC100 (NCIH 460 cells) [µM]	LC50 (NCIH 460 cells) [µM]	GI50 (HCT 116 cells) [µM]	IC100 (HCT 116 cells) [µM]	LC50 (HCT 116 cells) [µM]	GI50 (MDAMB231/U251) [µM]	IC100 (MDAMB231/U251) [µM]	LC50 (MDAMB231/U251) [µM]	Mean GI50 [1]	HDAC Inhibition 1 μM [2]	HDAC Inhibition 10 μM [2]	IC50 [2] [nM]
CC(=O)SCCCCC(=O)N1CCN(C(=O)CNc2nc3ccccc3s2)CC1 [Example 1, N-{2-[4-(5-thioacetylpentanoyl)piperazin-1-yl]-2-oxoethyl}-1,3-benzothiazol-2-amine]	> 100	> 100	> 100	> 100	> 100	> 100	80	> 100	> 100	>100	10.48	38.59	
CC(=O)SCCCCCC(=O)N1CCN(C(=O)CN2CCOCC2)CC1 [Example 2]	> 100	> 100	> 100	> 100	> 100	> 100	> 100	> 100	> 100	>100	8.31	34.56	
CC(=O)SCCCCCC(=O)N1CCN(C(=O)CNc2nc3ccc(C)cc3s2)CC1 [Example 3, N-{2-[4-(6-thioacetylhexanoyl)piperazin-1-yl]-2-oxoethyl}-6-methyl-1,3-benzo thiazol-2-amine]	> 100	> 100	> 100	49	99	> 100	48	> 100	> 100	>100	42.40	86.74	
CC(=O)SCCCCC(=O)N1CCN(CC(=O)Nc2nc(C)cs2)CC1 [Example 4, 2-[4-(5-Thioacetylpentanoyl)piperazin-1-yl]-N-(4-methyl-1,3-thiazol-2-yl)acetamide]	9	91	> 100	60	> 100	> 100	45	> 100	> 100	38	15.82	50.88	
CC(=O)SCCCCCC(=O)N1CCN(CC(=O)Nc2nc3ccccc3s2)CC1 [Example 6, 2-[4-(6-Thioacetylhexanoyl)piperazin-1-yl]-N-(1,3-benzothiazol-2-yl)acetamide]	0.8	53	> 100	4.5	42	> 100	0.01	0.4	> 100	2.00	63.40	83.30	62
CC(=O)SCCCCC(=O)N1CCN(CC(=O)Nc2nccs2)CC1 [Example 7, 2-[4-(5-Thioacetylpentanoyl)piperazin-1-yl]-N-(1,3-thiozole-2-yl)acetamide]	50	88	> 100	85	> 100	> 100	> 100	> 100	> 100	67.50	27.76	45.96	
CC(=O)SCCCCC(=O)N1CCN(CC(=O)Nc2nc3ccccc3s2)CC1 [Example 8, 2-[4-(5-Thioacetylpentanoyl)piperazin-1-yl]-N-(1,3-benzothiazol-2-yl)acetamide]	18	> 100	> 100	7	80	> 100	> 100	> 100	> 100	12.50	31.41	69.85	
CC(=O)SCCCCC(=O)N1CCN(CC(=O)Nc2ncc([N+](=O)[O-])s2)CC1 [Example 9]	> 100	> 100	> 100	> 100	> 100	> 100	> 100	> 100	> 100	>100	3.39	23.65	
CC(=O)SCCCCCC(=O)N1CCN(CC(=O)Nc2nc3c(C)cccc3s2)CC1 [Example 10, 2-[4-(6-Thioacetylhexanoyl)piperazin-1-yl]-N-(4-methyl-1,3-benzothiazol-2-yl)acetamide]	0.5	2	95	3	50	> 100	2	9	> 100	1.80	54.06	87.16	1500
CC(=O)SCCCCC(=O)N1CCN(CC(=O)Nc2nc3ccc(C)cc3s2)CC1 [Example 11, 2-[4-(5-Thioacetylpentanoyl)piperazin-1-yl]-N-(6-methyl-1,3-benzothiazol-2-yl)acetamide]	0.3	0.9	8	5	40	> 100	1	8	> 100	2.10	31.75	65.63	6500
Cc1cccc2sc(NC(=O)CN3CCN(C(=O)CCCCCNO)CC3)nc12 [Example 27]	8	> 100	> 100	8	> 100	> 100	28	80	> 100	14.70			
COc1cccc2sc(NC(=O)CN3CCN(C(=O)CCCCCN(OCc4ccccc4)C(C)=O)CC3)nc12 [Example 28, N-4-methoxy-1,3-benzothiazol-2-yl-2-{6-[6 (N-acetyl-O-benzyl)hexanoyl]piperazin-1-yl}acetamide]	21	> 100	> 100	5.5	58	> 100	0.08	9	> 100	8.86			
CSCC[C@@H](N)C(=O)NCCCCCC(=O)N1CCN(CC(=O)Nc2nc3ccccc3s2)CC1 [Example 42]	56	> 100	> 100	26	78	> 100	99.5	> 100	> 100	61			
